Patent publication US20110118262A1, “Pyrrolidinyl and Piperidinyl Compounds Useful as NHE-1 Inhibitiors” (BOEHRINGER INGELHEIM INTERNATIONAL GMBH, priority 2008, published 2011)

biological target: T1, NHE-1 (Homo sapiens, UniProt P19634); test: Evaluation of NHE-1 Inhibition (pHi) in HT-29 cells; type: cell-based; conditions: BCECF dye, 50% inhibition of the intracellular pH recovery, read-out: NHE1 HT29 pHi IC50
T1 construct: endogenous in cells; host or cells: HT-29
Method: Evaluation of NHE-1 Inhibition (pHi)
HT-29 cells resuspended in DMEM supplemented with 10% FBS, 1% NEAA, and 1% Penn-Strep are seeded at 10,000 cells/well in collagen coated 384 well plates which are then incubated for 24 hours at 37° C. The next day, the medium is removed and the cells are dye (Invitrogen's BCECF) loaded for 30 minutes at 37° C., washed three times with an acid loading buffer (10 mM NH4Cl, 1.8 mM CaCl2, 90 mM Choline Cl, 5 mM Glucose, 15 mM Hepes, 5 mM KCl, 1 mM MgCl2, adjusted to pH 7.5 with KOH) and further incubated at RT for 30 minutes.
At the end of the incubation, the buffer is removed and 5 uL of fresh acid loading buffer is added to each well to prevent the dessication of the cells. The plate is placed in a Hamamatsu FDSS6000 instrument and candidate compounds are added to the cells.

T1 sequence (P19634 whole entry): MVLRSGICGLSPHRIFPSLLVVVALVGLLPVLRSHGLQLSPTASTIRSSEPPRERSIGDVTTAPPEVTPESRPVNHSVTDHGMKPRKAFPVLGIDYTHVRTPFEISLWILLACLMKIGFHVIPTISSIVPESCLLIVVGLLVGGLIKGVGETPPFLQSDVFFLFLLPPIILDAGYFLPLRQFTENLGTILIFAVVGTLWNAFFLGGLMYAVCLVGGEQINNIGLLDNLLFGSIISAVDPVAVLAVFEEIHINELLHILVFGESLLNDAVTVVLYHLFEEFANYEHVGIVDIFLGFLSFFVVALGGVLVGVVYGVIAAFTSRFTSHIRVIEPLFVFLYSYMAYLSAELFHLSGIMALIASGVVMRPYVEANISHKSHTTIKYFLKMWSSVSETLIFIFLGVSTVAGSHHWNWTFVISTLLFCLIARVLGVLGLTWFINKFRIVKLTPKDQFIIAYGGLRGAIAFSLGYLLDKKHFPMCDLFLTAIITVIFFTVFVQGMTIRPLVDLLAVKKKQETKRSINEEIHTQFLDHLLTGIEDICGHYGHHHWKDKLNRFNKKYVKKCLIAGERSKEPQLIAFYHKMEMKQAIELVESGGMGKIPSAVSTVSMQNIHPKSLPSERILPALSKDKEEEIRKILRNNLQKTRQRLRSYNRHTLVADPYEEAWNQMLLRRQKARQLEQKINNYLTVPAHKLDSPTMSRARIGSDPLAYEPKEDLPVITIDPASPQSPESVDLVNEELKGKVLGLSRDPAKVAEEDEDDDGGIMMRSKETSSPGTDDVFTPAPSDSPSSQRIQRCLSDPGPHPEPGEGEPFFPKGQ

Row | Compound | IC50 [nM]
1 | N=C(N)NC(=O)c1ccc(C2CCN(C(=O)c3ccccc3)CC2)c(C(F)(F)F)c1 [N-[4-(1-Benzoyl-piperidin-4-yl)-3-trifluoromethyl-benzoyl]-guanidine] | 45
2 | CCCC(=O)N1CCC(c2ccc(C(=O)NC(=N)N)cc2C(F)(F)F)CC1 [N-[4-(1-Butyryl-piperidin-4-yl)-3-trifluoromethyl-benzoyl]-guanidine] | 30
3 | N=C(N)NC(=O)c1ccc(C2CCN(C(=O)C3CCCC3)CC2)c(C(F)(F)F)c1 [N-[4-(1-Cyclopentanecarbonyl-piperidin-4-yl)-3-trifluoromethyl-benzoyl]-guanidine] | 77
4 | CC(C)C(=O)N1CCC(c2ccc(C(=O)NC(=N)N)cc2C(F)(F)F)CC1 [N-[4-(1-Isobutyryl-piperidin-4-yl)-3-trifluoromethyl-benzoyl]-guanidine] | 25
5 | COc1cc(C2CCN(C(=O)c3ccccn3)CC2)c(C(F)(F)F)cc1C(=O)NC(=N)N [N-{2-Methoxy-4-[1-(pyridine-2-carbonyl)-piperidin-4-yl]-5-trifluoromethyl-benzoyl}-guanidine] | 43
6 | Cc1cc(C2CCN(C(=O)c3ccc4c(c3)CCC(=O)N4)CC2)c(C(F)(F)F)cc1C(=O)NC(=N)N [N-{2-Methyl-4-[1-(2-oxo-1,2,3,4-tetrahydro-quinoline-6-carbonyl)-piperidin-4-yl]-5-trifluoromethyl-benzoyl}-guanidine] | 63
7 | Cc1ccc(C(=O)N2CCC(c3cc(C)c(C(=O)NC(=N)N)cc3C(F)(F)F)CC2)cn1 [N-{2-Methyl-4-[1-(6-methyl-pyridine-3-carbonyl)-piperidin-4-yl]-trifluoromethyl-benzoyl}-guanidine] | 82
8 | Cc1cc(C2CCN(C(=O)c3ccc(=O)[nH]c3)CC2)c(C(F)(F)F)cc1C(=O)NC(=N)N [N-{2-Methyl-4-[1-(6-oxo-1,6-dihydro-pyridine-3-carbonyl)-piperidin-4-yl]-5-trifluoromethyl-benzoyl}-guanidine] | 30
9 | Cc1cc(C2CCN(C(=O)c3cccnc3)CC2)c(C(F)(F)F)cc1C(=O)NC(=N)N [N-{2-Methyl-4-[1-(pyridine-3-carbonyl)-piperidin-4-yl]-5-trifluoromethyl-benzoyl}-guanidine] | 30
10 | N=C(N)NC(=O)c1ccc(C2CCN(C(=O)c3cccc(C(F)(F)F)c3)CC2)c(C(F)(F)F)c1 [N-{3-Trifluoromethyl-4-[1-(3-trifluoromethyl-benzoyl)-piperidin-4-yl]-benzoyl}-guanidine] | 250
11 | N=C(N)NC(=O)c1ccc(C2CCN(C(=O)c3ccc(C(F)(F)F)cc3)CC2)c(C(F)(F)F)c1 [N-{3-Triuoromethyl-4-[1-(4-trifluoromethyl-benzoyl)-piperidin-4-yl]-benzoyl}-guanidine] | 337
12 | CS(=O)(=O)c1cc(C(=O)NC(=N)N)ccc1C1CCN(C(=O)c2cccc(C(F)(F)F)c2)CC1 [N-{3-methanesulfonyl-4-[1-(3-trifluoromethyl-benzoyl)-piperidin-4-yl]-benzoyl}-guanidine] | 54
13 | N=C(N)NC(=O)c1ccc(C2CCN(C(=O)C3(N)CCC3)CC2)c(C(F)(F)F)c1 [N-{4-[1-(1-Amino-cyclobutanecarbonyl)-piperidin-4-yl]-3-trifluoromethyl-benzoyl}-guanidine] | 31
14 | N=C(N)NC(=O)c1ccc(C2CCN(C(=O)C3(N)CCCCC3)CC2)c(C(F)(F)F)c1 [N-{4-[1-(1-Amino-cyclohexanecarbonyl)-piperidin-4-yl]-3-trifluoromethyl-benzoyl}-guanidine] | 33
15 | Cn1cccc1C(=O)N1CCC(c2ccc(C(=O)NC(=N)N)cc2C(F)(F)F)CC1 [N-{4-[1-(1-Methyl-1H-pyrrole-2-carbonyl)-piperidin-4-yl]-3-trifluoromethyl-benzoyl}-guanidine] | 79
16 | N=C(N)NC(=O)c1ccc(C2CCN(C(=O)C3CCN(c4ncccn4)CC3)CC2)c(C(F)(F)F)c1 [N-{4-[1-(1-Pyrimidin-2-yl-piperidine-4-carbonyl)-piperidin-4-yl]-3-trifluoromethyl-benzoyl}-guanidine] | 70
17 | Cc1cc(C2CCN(C(=O)c3cc4ccccc4[nH]3)CC2)c(C(F)(F)F)cc1C(=O)NC(=N)N [N-{4-[1-(1H-Indole-2-carbonyl)-piperidin-4-yl]-2-methyl-5-trifluoromethyl-benzoyl}-guanidine] | 290
18 | Cc1cc(C2CCN(C(=O)c3ccc4[nH]ccc4c3)CC2)c(C(F)(F)F)cc1C(=O)NC(=N)N [N-{4-[1-(1H-Indole-5-carbonyl)-piperidin-4-yl]-2-methyl-5-trifluoromethyl-benzoyl}-guanidine] | 47
19 | N=C(N)NC(=O)c1ccc(C2CCN(C(=O)c3ccc[nH]3)CC2)c(C(F)(F)F)c1 [N-{4-[1-(1H-Pyrrole-2-carbonyl)-piperidin-4-yl]-3-trifluoromethyl-benzoyl}-guanidine] | 46
20 | N=C(N)NC(=O)c1ccc(C2CCN(C(=O)c3ccc[nH]3)CC2)cc1 [N-{4-[1-(1H-Pyrrole-2-carbonyl)-piperidin-4-yl]-benzoyl}-guanidine] | 385

Stronger by IC50, values ahead:

Row | IC50 [nM] | Compound
21 | 24 | COCC(=O)N1CCC(c2ccc(C(=O)NC(=N)N)cc2S(C)(=O)=O)CC1 [N-{3-methanesulfonyl-4-[1-(2-methoxy-acetyl)-piperidin-4-yl]-benzoyl}-guanidine]
22 | 21 | CCC(=O)N1CCC(c2ccc(C(=O)NC(=N)N)cc2S(C)(=O)=O)CC1 [N-{3-methanesulfonyl-4-[1-propionyl-piperidin-4-yl]-benzoyl}-guanidine]
23 | 20 | Cc1cc(C(=O)N2CCC(c3ccc(C(=O)NC(=N)N)cc3C(F)(F)F)CC2)nn1C [N-{4-[1-(1,5-Dimethyl-1H-pyrazole-3-carbonyl)-piperidin-4-yl]-3-trifluoromethyl-benzoyl}-guanidine]
24 | 18 | N=C(N)NC(=O)c1ccc(C2CCN(C(=O)C3(N)CCc4ccccc43)CC2)c(C(F)(F)F)c1 (centres unmarked) [N-{4-[1-(1-Amino-indane-1-carbonyl)-piperidin-4-yl]-3-trifluoromethyl-benzoyl}-guanidine]
25 | 16 | N=C(N)NC(=O)c1ccc(C2CCN(C(=O)C3CC3)CC2)c(C(F)(F)F)c1 [N-[4-(1-Cyclopropanecarbonyl-piperidin-4-yl)-3-trifluoromethyl-benzoyl]-guanidine]
26 | 15 | Cn1ccnc1C(=O)N1CCC(c2ccc(C(=O)NC(=N)N)cc2C(F)(F)F)CC1 [N-{4-[1-(1-Methyl-1H-imidazole-2-carbonyl)-piperidin-4-yl]-3-trifluoromethyl-benzoyl}-guanidine]
27 | 12 | CC(=O)N1CCC(c2cc(C)c(C(=O)NC(=N)N)cc2S(C)(=O)=O)CC1 [N-[4-(1-Acetyl-piperidin-4-yl)-5-methanesulfonyl-2-methyl-benzoyl]-guanidine]
28 | 12 | CCC(=O)N1CCC(c2ccc(C(=O)NC(=N)N)cc2C(F)(F)F)CC1 [N-[4-(1-Propionyl-piperidin-4-yl)-3-trifluoromethyl-benzoyl]-guanidine]
29 | 12 | Cc1cc(C2CCN(C(=O)c3ncco3)CC2)c(C(F)(F)F)cc1C(=O)NC(=N)N [N-{2-Methyl-4-[1-(oxazole-2-carbonyl)-piperidin-4-yl]-5-trifluoromethyl-benzoyl}-guanidine]
30 | 10 | CN1CCCC(C(=O)N2CCC(c3ccc(C(=O)NC(=N)N)cc3C(F)(F)F)CC2)C1 (centres unmarked) [N-{4-[1-(1-Methyl-piperidine-3-carbonyl)-piperidin-4-yl]-3-trifluoromethyl-benzoyl}-guanidine]
31 | 9 | CC(=O)N1CCC(c2ccc(C(=O)NC(=N)N)cc2C(F)(F)F)CC1 [N-[4-(1-Acetyl-piperidin-4-yl)-3-trifluoromethyl-benzoyl]-guanidine]
32 | 9 | COCC(=O)N1CCC(c2cc(OC)c(C(=O)NC(=N)N)cc2C(F)(F)F)CC1 [N-{2-Methoxy-4-[1-(2-methoxy-acetyl)-piperidin-4-yl]-5-trifluoromethyl-benzoyl}-guanidine]
33 | 7 | Cc1cc(C2CCN(C(=O)c3ccncc3)CC2)c(C(F)(F)F)cc1C(=O)NC(=N)N [N-{2-Methyl-4-[1-(pyridine-4-carbonyl)-piperidin-4-yl]-5-trifluoromethyl-benzoyl}-guanidine]
34 | 6 | COc1cc(C2CCN(C(=O)c3ccn[nH]3)CC2)c(C(F)(F)F)cc1C(=O)NC(=N)N [N-{2-Methoxy-4-[1-(2H-pyrazole-3-carbonyl)-piperidin-4-yl]-5-trifluoromethyl-benzoyl}-guanidine]
35 | 4 | COc1cc(C2CCN(C(=O)c3ccc4c(c3)CCC(=O)N4)CC2)c(C(F)(F)F)cc1C(=O)NC(=N)N [N-{2-Methoxy-4-[1-(2-oxo-1,2,3,4-tetrahydro-quinoline-6-carbonyl)-piperidin-4-yl]-5-trifluoromethyl-benzoyl}-guanidine]
36 | 4 | Cc1cc(C2CCN(C(=O)c3ncc[nH]3)CC2)c(C(F)(F)F)cc1C(=O)NC(=N)N [N-{4-[1-(1H-Imidazole-2-carbonyl)-piperidin-4-yl]-2-methyl-5-trifluoromethyl-benzoyl}-guanidine]
37 | 2 | N=C(N)NC(=O)c1ccc(C2CCN(C(=O)C3(N)CCCC3)CC2)c(C(F)(F)F)c1 [N-{4-[1-(1-Amino-cyclopentanecarbonyl)-piperidin-4-yl]-3-trifluoromethyl-benzoyl}-guanidine]
38 | 0.3 | CN1CCC(C(=O)N2CCC(c3ccc(C(=O)NC(=N)N)cc3C(F)(F)F)CC2)CC1 [N-{4-[1-(1-Methyl-piperidine-4-carbonyl)-piperidin-4-yl]-3-trifluoromethyl-benzoyl}-guanidine]
